Earlier results on 1 molecule are cited in patent US6753016B2, “Preservation of wood products” (Rohm and Haas Company, priority 2001, dated 2004).

The conditions of this data set: aqueous treatment of wood surfaces; compared to conventional chromium(VI) treatment.

On to `[Cl][Fe]([Cl])[Cl]` [ferric chloride], for which the “protective effect on treated wood in weathering” value was “does not have a protective effect”.
